Consider 21 compounds from patent publication US20200216441A1, “PESTICIDALLY ACTIVE HETEROCYCLIC DERIVATIVES WITH SULFUR CONTAINING SUBSTITUENTS” (SYNGENTA PARTICIPATIONS AG, priority 2017, published 2020).

In general, mortality refers to the percentage killed. As a reminder, the melting point is the temperature of the solid-liquid transition.

In data set [1] the test system is Euschistus heros (Neotropical Brown Stink Bug). Put plainly: whole plant or invertebrate. The data set is classed as in vivo. The note with it: 120 h, application rate of 200 ppm, N2 nymphs on sprayed soybean leaves, 5 days after infestation, read-out: effect in at least one of the two categories (mortality or growth inhibition).
In data set [2] the test system is Myzus persicae (Green Peach Aphid). Put plainly: whole plant or invertebrate. Format: in vivo. The note with it: 144 h, test rate of 24 ppm, systemic, roots of infested pea seedlings in test solution, 6 days.
The test system of data set [3] is Plutella xylostella (Diamond Back Moth). The data set can be described thus: whole plant or invertebrate. Format: in vivo. The note with it: 120 h, application rate of 200 ppm, L2 larvae on treated artificial diet, 5 days after infestation, read-out: effect in at least one of the two categories (mortality or growth inhibition).
The test system of data set [4] is Spodoptera littoralis (Egyptian Cotton Leaf Worm). Put plainly: Spodoptera littoralis (Egyptian Cotton Leaf Worm), uptake by lettuce roots from agar. Format: in vivo. The note with it: 144 h, test rate of 12.5 ppm, compound in agar absorbed by lettuce roots, 6 days after infestation, read-out: effect in at least one of the three categories (mortality, anti-feeding, or growth inhibition). The source says:
Example B10: Spodoptera littoralis (Egyptian Cotton Leaf Worm)
Test compounds were applied by pipette from 10′000 ppm DMSO stock solutions into 24-well plates and mixed with agar. Lettuce seeds were placed onto the agar and the multi well plate was closed by another plate which contained also agar. After 7 days the compound was absorbed by the roots and the lettuce grew into the lid plate. The lettuce leaves were then cut off into the lid plate. Spodoptera eggs were pipetted through a plastic stencil onto a humid gel blotting paper and the lid plate was closed with it.

For data set [5], the system named is Myzus persicae (Green Peach Aphid). Put plainly: whole plant or invertebrate. The note with it: foliar, 144 h.
Data set [6] has as its system Spodoptera littoralis (Egyptian Cotton Leaf Worm). Put plainly: whole plant or invertebrate. The note with it: in Gossypium barbadense, foliar, 72 h, read-out: control (mortality, anti-feeding effect, growth inhibition).
Data set [7] deals with Diabrotica Balteata (Corn Root Worm). Put plainly: Diabrotica balteata (Corn Root Worm). The note with it: in Zea mays, 96 h, read-out: effect in at least one of the two categories (mortality or growth inhibition).
For data set [8], the system named is Bemisia tabaci (Cotton White Fly). The note with it: in Gossypium hirsutum, foliar, 144 h.
The subject of data set [9] is Frankliniella occidentalis (Western Flower Thrips). The note with it: foliar, 168 h.
Data set [10] concerns Tetranychus urticae (Two-Spotted Spider Mite). The note with it: foliar, 192 h.

In the case of `CCS(=O)(=O)c1cc(OCC2CC2)cnc1-c1nc2cc(C(F)(F)F)ncc2n1C` [Compound P24, 2-[5-(cyclopropylmethoxy)-3-ethylsulfonyl-2-pyridyl]-3-methyl-6-(trifluoromethyl)imidazo[4,5-c]pyridine], the percent effect (mortality or growth inhibition) at 200 ppm in [1] and in [3] was at least 80% throughout. The compound further returned a mortality at 24 ppm in data set [2] of at least 80%. Further, the percent effect (mortality, anti-feeding or growth inhibition) at 12.5 ppm in data set [4] was at least 80%. Besides, the mortality at 200 ppm in [5], in [6] and in data set [7] was at least 80% in each case.

Compound `CCS(=O)(=O)c1cc(OC(F)(F)CBr)ccc1-c1nc2cc(C(F)(F)F)ncc2n1C` displayed a melting point of 137 to 139 °C.

As for `CCS(=O)(=O)c1cc(OC(C)(F)F)cnc1-c1nc2cc(C(F)(F)F)ncc2n1C` [Compound P78, 2-[5-(1,1-difluoroethoxy)-3-ethylsulfonyl-2-pyridyl]-3-methyl-6-(trifluoromethyl)imidazo[4,5-c]pyridine], the percent effect (mortality or growth inhibition) at 200 ppm in data set [1] and in [3] was at least 80% each time. Further, the mortality at 24 ppm in data set [2] was at least 80%. The mortality at 200 ppm in data set [5], in data set [6], in [7], in data set [8] and in [9] was at least 80% each time.

With `CCS(=O)(=O)c1cc(OC(C)(C)C#N)ccc1-c1nc2cc(C(F)(F)F)ncc2n1C` [Compound P103, 2-[3-ethylsulfonyl-4-[3-methyl-6-(trifluoromethyl)imidazo[4,5-c]pyridin-2-yl]phenoxy]-2-methyl-propanenitrile], the percent effect (mortality or growth inhibition) at 200 ppm in [1] and in data set [3] was at least 80% throughout. Moreover, the mortality at 24 ppm in data set [2] was at least 80%. For the same compound, the mortality at 200 ppm in data set [5], in [6], in data set [7], in data set [8], in data set [10] and in [9] was at least 80% each time.

Consider `CCS(=O)(=O)c1cc(OC(C)C)cnc1-c1nc2cc([S+]([O-])C(F)(F)F)ncc2n1C` (stereo not drawn) [Compound P60, 2-(3-ethylsulfonyl-5-isopropoxy-2-pyridyl)-3-methyl-6-(trifluoromethylsulfinyl)imidazo[4,5-c]pyridine], for which the percent effect (mortality or growth inhibition) at 200 ppm in data set [1] and in [3] was at least 80% throughout. This compound returned a mortality at 24 ppm in data set [2] of at least 80%. Besides, the mortality at 200 ppm in data set [5], in data set [6], in [8], in [10] and in data set [9] was at least 80% each time.

For the compound `CCSc1cc(OC(C)(C)C(=O)O)cnc1-c1nc2cc(C(F)(F)F)ncc2n1C`, the melting point is 161 to 163 °C.

Compound `CCOC(=O)C(C)(C)Oc1cnc(-c2nc3cc(C(F)(F)F)ncc3n2C)c(S(=O)(=O)CC)c1` came in with a melting point of 145 to 147 °C.

For `CCS(=O)(=O)c1cc(OCSC)cnc1-c1nc2cc(C(F)(F)F)ncc2n1C` [Compound P10, 2-[3-ethylsulfonyl-5-(methylsulfanylmethoxy)-2-pyridyl]-3-methyl-6-(trifluoromethyl)imidazo[4,5-c]pyridine], the percent effect (mortality or growth inhibition) at 200 ppm in data set [1] was at least 80%. In addition, the mortality at 24 ppm in data set [2] is at least 80%. Also, the mortality at 200 ppm in data set [5], in data set [6], in data set [7], in [8] and in data set [9] was at least 80% in each case.

`CCS(=O)(=O)c1cc(OC(SC)C(N)=O)cnc1-c1nc2cc(C(F)(F)F)ncc2n1C` (stereo not drawn) came in with a melting point of 142 to 144 °C.

As for `CCS(=O)(=O)c1cc(OC(C)C(=O)OC)cnc1-c1nc2cc(C(F)(F)F)ncc2n1C` (stereo not drawn), the melting point lay within 131 to 133 °C.

Take `CCS(=O)(=O)c1cc(OCC(C)(F)F)cnc1-c1nc2cc(C(F)(F)F)ncc2n1C` [Compound P41, 2-[5-(2,2-difluoropropoxy)-3-ethylsulfonyl-2-pyridyl]-3-methyl-6-(trifluoromethyl)imidazo[4,5-c]pyridine]: the percent effect (mortality or growth inhibition) at 200 ppm in data set [1] and in data set [3] was at least 80% in each case. The compound further gave a mortality at 24 ppm in data set [2] of at least 80%. The mortality at 200 ppm in data set [5], in [6], in data set [7], in [8] and in data set [9] was at least 80% each time.

The compound `CCS(=O)(=O)c1cc(OC(C)(C)C(C)=O)cnc1-c1nc2cc(C(F)(F)F)ncc2n1C` gave a melting point of 138 to 140 °C.

For `CCS(=O)(=O)c1cc(OC(C)(F)F)ccc1-c1nc2cc(C(F)(F)F)ncc2n1C`, the melting point was in the range of 142 to 144 °C.

`CCS(=O)(=O)c1cc(OC(C)(C)C)cnc1-c1nc2cc(C(F)(F)F)ncc2n1C` [Compound P5, 2-(5-tert-butoxy-3-ethylsulfonyl-2-pyridyl)-3-methyl-6-(trifluoromethyl)imidazo[4,5-c]pyridine]: the percent effect (mortality or growth inhibition) at 200 ppm in data set [1] and in [3] was at least 80% in each case. For the same compound, the mortality at 24 ppm in [2] is at least 80%. The mortality at 200 ppm in data set [5], in data set [6], in [7], in data set [8] and in [10] was at least 80% throughout.

Take `CCS(=O)(=O)c1cc(OCC2(C#N)CC2)cnc1-c1nc2cc(C(F)(F)F)ncc2n1C` [Compound P79, 1-[[5-ethylsulfonyl-6-[3-methyl-6-(trifluoromethyl)imidazo[4,5-c]pyridin-2-yl]-3-pyridyl]oxymethyl]cyclopropanecarbonitrile]: the percent effect (mortality or growth inhibition) at 200 ppm in data set [1] and in [3] was at least 80% in each case. The mortality at 24 ppm in data set [2] was at least 80%. Also, the mortality at 200 ppm in [5], in data set [6], in [7], in data set [8] and in data set [10] was at least 80% throughout.

In the case of `CCS(=O)(=O)c1cc(OC(C#N)SC)cnc1-c1nc2cc(C(F)(F)F)ncc2n1C` (stereo not drawn), the melting point was 204 to 206 °C.

Consider `CCS(=O)(=O)c1cc(OC(CF)CF)cnc1-c1nc2cc(C(F)(F)F)ncc2n1C` [Compound P53, 2-[3-ethylsulfonyl-5-[2-fluoro-1-(fluoromethyl)ethoxy]-2-pyridyl]-3-methyl-6-(trifluoromethyl)imidazo[4,5-c]pyridine], for which the percent effect (mortality or growth inhibition) at 200 ppm in [1] and in data set [3] was at least 80% throughout. Also, in data set [2], the mortality at 24 ppm is at least 80%. The mortality at 200 ppm in [5], in data set [6], in [7], in data set [8], in [10] and in [9] was at least 80% each time.

Compound `CCS(=O)(=O)c1cc(OC(SC)C(=O)OC)cnc1-c1nc2cc(C(F)(F)F)ncc2n1C` (stereo not drawn) registered a melting point of 94 to 96 °C.

`CCS(=O)(=O)c1cc(OC(C)(C)C(F)(F)F)cnc1-c1nc2cc(C(F)(F)F)ncc2n1C` [Compound P76, 2-[3-ethylsulfonyl-5-(2,2,2-trifluoro-1,1-dimethyl-ethoxy)-2-pyridyl]-3-methyl-6-(trifluoromethyl)imidazo[4,5-c]pyridine]: the percent effect (mortality or growth inhibition) at 200 ppm in [1] and in data set [3] was at least 80% each time. The mortality at 200 ppm in [5], in data set [6], in [7], in [8] and in data set [10] was at least 80% in each case.

Take `CCS(=O)(=O)c1cc(OC(C)(C)C(=O)O)cnc1-c1nc2cc(C(F)(F)F)ncc2n1C`: the melting point lay within 242 to 244 °C.

As for `CCS(=O)(=O)c1cc(OC(C(=O)OC)S(C)(=O)=O)cnc1-c1nc2cc(C(F)(F)F)ncc2n1C` (stereo not drawn), the melting point lay in the range of 122 to 124 °C.
